Measurements reported in patent publication US9410142B2, “Dendrimer-based excipients for the attenuation of protein aggregation” (Massachusetts Institute of Technology, priority 2010, dated 2016).

Target: α-chymotrypsinogen A (aCgn) (Bos taurus, UniProt P00766)
Test: aCgn aggregation (monomer loss) at 52.5° C. by size exclusion HPLC
Assay type: physicochemical, Bovine
Details: for relative rate constant for aCgn monomer loss: additive concentration near 0.2 M; for aCgn t95/t95, 0 (Shelf-Life Extension Factor): isotonic concentrations, 20 mM sodium citrate pH 5, 52.5° C., time for 5% loss of protein vs no additive
Procedure: The aggregation of aCgn was accelerated by incubating samples at an elevated temperature. […] In addition to all aggregation experiments being conducted at that temperature, all samples contained 10 mg/mL aCgn, held at pH 5.0 using a 20 mM sodium citrate buffer. 50 μL aliquots of each protein-cosolute mixture were placed in 0.2 mL polymerase chain reaction (PCR) tubes and then incubated in a Bio-Rad Mycycler thermal cycler with a timer initiated when the thermal cycler reached the desired temperature. Each series contained 12 samples and up to 8 different mixtures were tested at the same time during any given experiment. Samples were removed periodically and immediately placed in an ice bath to quench the aggregation reaction. The length of each experiment was planned so that the extent of reaction was such that at least 20% of the protein aggregated, making changes in the rate of aggregation pronounced. After at least five minutes in the ice bath, the samples were briefly spun in a minicentrifuge to remove precipitated aggregates and then transferred to autosampler vials.
All aCgn samples were first treated with phenylmethylsulfonyl fluoride to inhibit residual amounts of active enzyme and, after dialysis, solutions were frozen, rather than lyophilized, in 0.3 mL aliquots and used within 6 months. […] Solutions for the aggregation study were prepared by first preparing a solution of the cosolute of interest in a 20 mM sodium citrate pH 5 buffer at a concentration double that of interest (adjusting the pH to 5 if needed with the appropriate acid or an 8 M sodium hydroxide solution), then mixing 0.3 mL of this solution with 0.3 mL of a thawed aCgn solution. This solution was then divided into twelve aliquots, each 50 μL in volume, and incubated at an elevated temperature, as described below.
15 μL, of each aCgn sample were injected into an Agilent 1200 series HPLC, equipped with a Zorbax GF-250 (4.6×250 mm, 4 micron) size exclusion column and a UV-Vis detector, during a sequence. The HPLC mobile phase contained 25 mM citric acid monohydrate, 25 mM sodium acetate, and 200 mM sodium chloride with the pH adjusted to 4.0 using sodium hydroxide. The flow rate was set at 1 mL/min and samples were monitored at 280 nm.
Peak area at each time point was compared to the peak area for an unstressed sample to create a monomer loss profile normalized with respect to the initial concentration. Each profile was compared to a profile for a sample containing no cosolute to determine the change in aggregation rate upon addition of the cosolute. For a control, each aggregation experimental setup had one protein solution that contained no cosolute to verify that the baseline aggregation rate remained constant amongst all experiments.
The most notable consequence of perturbing a protein's environment is the enhancement or inhibition of protein aggregation. Deyoung L R et al. (1993) Accounts Chem Res 26:614-620; Fink A L (1998) Fold Des 3:R9-R23. The guanidinium-modified dendrimers were added to model protein solutions and incubated at an elevated temperature to determine how they influence the rate of this degradation pathway. […] At low dendrimer concentrations (0.05 M), the rate of monomer loss in the presence of the surface-modified dendrimer is slower than when compared to the reference solution. However, this aggregation rate reduction is insignificant when compared to the rate reduction induced by a high concentration of other commonly used additives such as arginine hydrochloride (ArgHCl), which is also depicted in the figure. Furthermore, as the concentration of the surface-modified dendrimer is increased, the aggregation rate reduction decreases until ultimately, the rate of aggregation is increased. At a concentration of 0.2 M, the surface-modified dendrimer induced rapid aggregation, causing a 50% loss in about 10 minutes as opposed to 30 minutes for the solution containing no cosolute. […]

Row | Compound | aCgn aggregation suppression compared with other salt forms / generations (FIG. 5, 6, 8) (10 mg/mL aCgn, pH 5, 52.5° C.) | relative rate constant for aCgn monomer loss (10 mg/mL aCgn, pH 5, 52.5° C.) | aCgn t95/t95, 0 (Shelf-Life Extension Factor)
1 | N=C(N)NCCNC(=O)CCN(CCC(=O)NCCNC(=N)N)CCN(CCC(=O)NCCNC(=N)N)CCC(=O)NCCNC(=N)N.O=S(=O)(O)O.O=S(=O)(O)O.O=S(=O)(O)O [Gdm(SO4)1/2] | nearly identical ability for inhibiting aggregation as the H2PO4 salt form | approximately 0.02 | 26.9
2 | N=C(N)NCCNC(=O)CCN(CCC(=O)NCCNC(=N)N)CCN(CCC(=O)NCCNC(=N)N)CCC(=O)NCCNC(=N)N.O=P(O)(O)O.O=P(O)(O)O.O=P(O)(O)O.O=P(O)(O)O.O=P(O)(O)O.O=P(O)(O)O [Gdm(H2PO4)] |  | approximately 0.02 | 18.9
